Data from ChEMBL document CHEMBL4342498, “Design and Discovery of an Orally Efficacious Spiroindolinone-Based Tankyrase Inhibitor for the Treatment of Colon Cancer” (J Med Chem, 2020).
Converted amounts (≈) assume the structure as drawn.

Experiments:
COLO 320DM = assay: Antiproliferative activity against human COLO320DM cells assessed as inhibition of cell growth measured after 4 days by CellTiter-Glo assay; assay type: functional; details: 96 h
Tankyrase 1/2 [1] = molecular target: T1, Tankyrase 1/2 (Homo sapiens, UniProt Q9H2K2+O95271)
T1 sequence (Q9H2K2 whole entry): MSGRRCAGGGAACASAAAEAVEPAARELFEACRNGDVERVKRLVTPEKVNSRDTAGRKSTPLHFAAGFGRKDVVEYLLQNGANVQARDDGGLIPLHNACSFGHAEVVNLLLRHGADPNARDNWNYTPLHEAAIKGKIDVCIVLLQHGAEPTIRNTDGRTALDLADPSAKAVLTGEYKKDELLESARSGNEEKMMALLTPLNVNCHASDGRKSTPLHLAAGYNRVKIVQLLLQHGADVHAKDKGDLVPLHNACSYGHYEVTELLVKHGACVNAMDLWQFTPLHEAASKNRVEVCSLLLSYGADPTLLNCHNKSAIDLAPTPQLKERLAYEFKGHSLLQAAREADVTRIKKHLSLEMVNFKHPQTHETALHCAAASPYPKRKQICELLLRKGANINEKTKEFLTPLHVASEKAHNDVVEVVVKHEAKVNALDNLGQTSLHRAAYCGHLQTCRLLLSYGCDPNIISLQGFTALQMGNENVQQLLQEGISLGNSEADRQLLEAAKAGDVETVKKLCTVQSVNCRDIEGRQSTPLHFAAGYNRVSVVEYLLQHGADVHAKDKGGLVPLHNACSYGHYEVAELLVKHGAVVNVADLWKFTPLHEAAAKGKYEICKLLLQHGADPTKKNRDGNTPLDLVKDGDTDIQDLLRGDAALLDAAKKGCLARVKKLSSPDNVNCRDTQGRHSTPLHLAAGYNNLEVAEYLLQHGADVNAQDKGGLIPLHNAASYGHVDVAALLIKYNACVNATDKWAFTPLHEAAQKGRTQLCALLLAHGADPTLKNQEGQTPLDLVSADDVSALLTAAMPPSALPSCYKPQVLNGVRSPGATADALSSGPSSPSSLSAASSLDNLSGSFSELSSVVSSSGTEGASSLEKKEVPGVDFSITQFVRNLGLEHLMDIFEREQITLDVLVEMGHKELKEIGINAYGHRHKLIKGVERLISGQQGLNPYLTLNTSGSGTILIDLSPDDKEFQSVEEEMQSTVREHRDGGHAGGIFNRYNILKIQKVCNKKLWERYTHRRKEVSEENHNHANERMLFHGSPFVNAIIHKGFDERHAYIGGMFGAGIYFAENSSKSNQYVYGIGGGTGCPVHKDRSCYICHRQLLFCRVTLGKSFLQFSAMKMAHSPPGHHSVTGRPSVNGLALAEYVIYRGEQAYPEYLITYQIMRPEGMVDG
T1 sequence (O95271 whole entry): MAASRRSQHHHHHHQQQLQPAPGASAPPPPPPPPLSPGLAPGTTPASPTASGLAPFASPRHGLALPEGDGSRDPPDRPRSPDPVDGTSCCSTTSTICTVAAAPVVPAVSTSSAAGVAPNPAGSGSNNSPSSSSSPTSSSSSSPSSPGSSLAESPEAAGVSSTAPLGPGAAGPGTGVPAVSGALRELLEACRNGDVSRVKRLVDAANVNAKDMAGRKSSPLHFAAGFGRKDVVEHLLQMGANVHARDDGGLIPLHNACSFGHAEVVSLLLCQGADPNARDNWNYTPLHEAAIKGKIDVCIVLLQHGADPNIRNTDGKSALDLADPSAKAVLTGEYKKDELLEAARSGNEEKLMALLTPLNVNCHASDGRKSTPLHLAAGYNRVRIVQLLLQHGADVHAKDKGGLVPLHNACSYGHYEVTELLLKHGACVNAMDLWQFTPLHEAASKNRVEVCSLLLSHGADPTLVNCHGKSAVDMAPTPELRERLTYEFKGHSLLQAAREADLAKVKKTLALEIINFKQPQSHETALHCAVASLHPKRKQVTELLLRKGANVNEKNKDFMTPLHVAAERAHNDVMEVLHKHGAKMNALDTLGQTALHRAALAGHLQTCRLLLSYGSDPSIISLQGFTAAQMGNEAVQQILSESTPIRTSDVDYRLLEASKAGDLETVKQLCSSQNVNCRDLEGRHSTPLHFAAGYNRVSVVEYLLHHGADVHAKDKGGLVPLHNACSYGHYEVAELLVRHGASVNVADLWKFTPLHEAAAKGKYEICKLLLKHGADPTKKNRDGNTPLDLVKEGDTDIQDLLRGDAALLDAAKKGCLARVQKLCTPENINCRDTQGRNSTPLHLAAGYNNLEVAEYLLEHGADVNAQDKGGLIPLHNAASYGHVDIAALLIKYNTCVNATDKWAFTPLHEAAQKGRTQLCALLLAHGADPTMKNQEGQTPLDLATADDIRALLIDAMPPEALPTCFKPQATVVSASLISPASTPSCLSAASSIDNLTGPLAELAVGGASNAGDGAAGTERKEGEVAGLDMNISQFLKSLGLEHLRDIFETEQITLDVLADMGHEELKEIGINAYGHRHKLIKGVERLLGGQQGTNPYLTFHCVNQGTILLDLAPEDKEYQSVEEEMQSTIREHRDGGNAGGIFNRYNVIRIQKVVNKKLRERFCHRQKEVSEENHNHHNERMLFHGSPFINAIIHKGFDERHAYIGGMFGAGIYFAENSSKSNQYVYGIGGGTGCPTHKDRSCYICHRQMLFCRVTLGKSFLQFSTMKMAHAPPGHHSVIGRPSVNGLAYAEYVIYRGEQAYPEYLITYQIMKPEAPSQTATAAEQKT
Description: Inhibition of TNKS/TNKS2 (unknown origin) expressed in human DLD1 cells assessed as reduction in Wnt-signaling measured after 24 hrs by TCF-luciferase reporter gene assay

Tankyrase 1/2 [2] = molecular target: T1, Tankyrase 1/2; details: hek293
Description: Inhibition of TNKS/TNKS2 (unknown origin) expressed in HEK293 cells assessed as reduction in Wnt-signaling measured after 24 hrs by TCF-luciferase reporter gene assay

[3] = molecular target: T2, Poly [ADP-ribose] polymerase tankyrase-2 (Homo sapiens, UniProt Q9H2K2); assay: Inhibition of recombinant human N-terminal TEV cleavage site-fused/FLAG-poly his-tagged TNKS2 ARC5-SAM-PARP domain (613 to 1166 residues) expressed in Escherichia coli assessed as reduction in auto-PARylation preincubated for 10 mins followed by biotinylated-NAD+ addition and measured after 45 mins by ELISA
T2 sequence (Q9H2K2 whole entry): T1 sequence (Q9H2K2 whole entry)

[4] = molecular target: T3, Poly [ADP-ribose] polymerase tankyrase-1 (Homo sapiens, UniProt O95271)
T3 sequence (O95271 whole entry): T1 sequence (O95271 whole entry)
Description: Inhibition of recombinant human N-terminal TEV cleavage site-fused/FLAG-poly his-tagged TNKS SAM-PARP domain (1024 to 1327 residues) expressed in Escherichia coli assessed as reduction in auto-PARylation preincubated for 10 mins followed by biotinylated-NAD+ addition and measured after 45 mins by ELISA

[5] = Net efflux ratio of permeability across basolateral to apical side over apical to basolateral side in MDCK2-MDR1 cells to MDCK2 cells; assay type: ADME, cell-based, Canis lupus familiaris; details: dog, mdck
physchem = details: phosphate buffered saline, pH 7.4
MDR1 = assay: Efflux ratio of permeability across basolateral to apical side over apical to basolateral side in MDCK2-MDR1 cells; assay type: ADME, cell-based, Canis lupus familiaris; details: dog, MDCK-MDR1
[6] = Efflux ratio of permeability across basolateral to apical side over apical to basolateral side in MDCK2 cells; assay type: ADME, cell-based, Canis lupus familiaris, MDCK-II; details: dog, mdck
[7] = Stability in human liver microsomes assessed as parent compound remaining at 1 uM measured after 60 mins in presence of NADPH by LC-MS/MS analysis; assay type: ADME, Microsome; details: read-out: Stability
[8] = Stability in mouse liver microsomes assessed as parent compound remaining at 1 uM measured after 60 mins in presence of NADPH by LC-MS/MS analysis; assay type: ADME, Microsome; details: read-out: Stability

SMILES	GI50 (COLO 320DM) [nM]	IC50 (Tankyrase 1/2 [1]) [nM]	IC50 (Tankyrase 1/2 [2]) [nM]	IC50 [3] [nM]	IC50 [4] [nM]	Ratio [5]	solubility at 1 h, 200 µM (physchem) [µg/mL]	efflux ratio (MDR1)	efflux ratio [6]	remaining at 1 h, 1 µM [7] [%]	remaining at 1 h, 1 µM [8] [%]
CN1CCc2c1nc(N1CCC3(CC1)CN(CCO)c1cc(F)cc(F)c13)[nH]c2=O	5010	140.6	36.5	73.6	53.5						
CN1CCCc2c1nc(N1CCC3(CC1)C(=O)N(CC(=O)O)c1cc(F)cc(F)c13)[nH]c2=O	12600	1185	221	29.8	28.5	1.3	92.1 (≈ 200 µM)	0.5	0.4	100	100
Cc1cccc2c(=O)[nH]c(N3CCC4(CC3)C(=O)N(CCO)c3cc(F)cc(F)c34)nc12	2490	4.8	0.2	3.4	5.3						
CN1CCc2c1nc(N1CCC3(CC1)C(=O)N(CCO)c1cc(F)cc(F)c13)[nH]c2=O	2370	32.9	4.4	27.6	14.1						
O=C1N(CCO)c2cc(F)cc(F)c2C12CCN(c1nc3c(c(=O)[nH]1)CCCC3)CC2	2270	71.2	2.1	20.6	14.9						
Cn1ccc2c(=O)[nH]c(N3CCC4(CC3)CN(CCO)c3cc(F)cc(F)c34)nc21	3560	7.1	1.1	7	3.8						
Cn1ccc2c(=O)[nH]c(N3CCC4(CC3)C(=O)N(CCO)c3cc(F)cc(F)c34)nc21	> 20000	6.3	1.5	10.2	4.5						

The next molecules have a lower GI50 (COLO 320DM) than those just listed; values first:

GI50 (COLO 320DM) [nM]	IC50 (Tankyrase 1/2 [1]) [nM]	IC50 (Tankyrase 1/2 [2]) [nM]	IC50 [3] [nM]	IC50 [4] [nM]	Ratio [5]	solubility at 1 h, 200 µM (physchem) [µg/mL]	efflux ratio (MDR1)	efflux ratio [6]	remaining at 1 h, 1 µM [7] [%]	remaining at 1 h, 1 µM [8] [%]	SMILES
1120	29.1	3.2	23.4	12.8	1.3	97.3 (≈ 202 µM)	9.1	6.8	28.6	63.7	CN1CCCc2c1nc(N1CCC3(CC1)C(=O)N(C)c1cc(N4CCNCC4)cc(F)c13)[nH]c2=O
720	13.7	3.1	8.5	5.5							Cc1cccc2c(=O)[nH]c(N3CCC4(CC3)CN(CCO)c3cc(F)cc(F)c34)nc12
440	1.6	0.2	6.1	3.7	5.1	50.5 (≈ 115 µM)	11.7	2.3	6.1	1.2	CN1CCCc2c1nc(N1CCC3(CC1)C(=O)N(CC#N)c1cc(F)cc(F)c13)[nH]c2=O
200	7.2	0.3	12.2	7.8	7	9.3 (≈ 19.7 µM)	8.4	1.2	0	0.3	CN1CCCc2c1nc(N1CCC3(CC1)C(=O)N(CC1COC1)c1cc(F)cc(F)c13)[nH]c2=O
160	2.3	0.8	4.7	3.5	2.4	75.1 (≈ 164 µM)	14.9	6.2	19.8	0.7	CN1CCCc2c1nc(N1CCC3(CC1)C(=O)N(C)c1cc(OCCO)cc(F)c13)[nH]c2=O
130	4.5	0.2	6.2	4.4	2.5	4.8 (≈ 11.2 µM)	2.7	1.1	1.9	0	COc1cc(F)c2c(c1)N(C)C(=O)C21CCN(c2nc3c(c(=O)[nH]2)CCCN3C)CC1
100	2	0.1	10.5	14.9	4.1	72.2 (≈ 150 µM)	7.8	1.9	6.3	46.5	CN1CCCc2c1nc(N1CCC3(CC1)C(=O)N(C)c1cc(N4CCOCC4)cc(F)c13)[nH]c2=O
70	2.4	0.2	32.4	16.2	2.9	1.3 (≈ 2.69 µM)	2	0.7	8	1	CN1CCCc2c1nc(N1CCC3(CC1)C(=O)N(CC(F)(F)F)c1cc(F)cc(F)c13)[nH]c2=O
50	1.3	0.1	6.4	4.8	3.6	11.4 (≈ 24.2 µM)	7.5	2.1	1.8	13.7	COCCOc1cc(F)c2c(c1)N(C)C(=O)C21CCN(c2nc3c(c(=O)[nH]2)CCCN3C)CC1
